pIC50: −log10 of the molar value.
Experiments:
CDK4/cyclin D3 = target: T1, CDK4/cyclin D3 (Homo sapiens, UniProt P11802); experiment: Human CDK4/cyclin D3 inhibitory activity (QS S Assist CDK4/Cyclin D3_FP Kit, IMAP fluorescent polarization); type: biochemical; details: read-out: CDK4 Activity symbol
T1 construct: purchased Carna Biosciences, Inc. QS S Assist CDK4/Cyclin D3_FP Kit
Description: Human CDK4/Cyclin D3 Inhibitory Activity
(§1) Each compound was analyzed for CDK4/cyclin D3 inhibitory activity with an assay kit (QS S Assist CDK4/Cyclin D3_FP Kit, available from Carna Biosciences, Inc.). This assay kit determines kinase activity on the basis of the IMAP technology by Molecular Devices. Specifically, the kinase activity is determined through quantification of a variation in fluorescent polarization caused by binding of a kinase-phosphorylated fluorescent substance to an IMAP-binding reagent.
Each solution was prepared with the 10× assay buffer attached to the kit or a separately prepared assay buffer having the same composition as the assay buffer attached to the kit. An assay buffer was prepared by 10-fold dilution of the 10× assay buffer with distilled water. The assay buffer contains 20 mM HEPES (pH 7.4), 0.01% Tween20, and 2 mM dithiothreitol. A test compound solution was prepared by dilution of the test compound with dimethyl sulfoxide (DMSO) to a concentration 100 times higher than the final concentration and then 25-fold dilution with the assay buffer to a concentration four times higher than the final concentration. An ATP/substrate/Metal solution was prepared by five-fold dilution of the 5×ATP/substrate/Metal solution attached to the kit with the assay buffer. An enzyme solution was prepared by dilution of the CDK4/cyclin D3 attached to the kit with the assay buffer to a concentration twice higher than the final concentration (final concentration of CDK4/cyclin D3: 12.5 to 25 ng/well). A detection reagent was prepared by five-fold dilution of each of 5×IMAP-binding buffer A and 5×IMAP-binding buffer B with distilled water, mixing of IMAP-binding buffer A with IMAP-binding buffer B at a ratio of 85:15, and 400-fold dilution of the IMAP-binding reagent with the mixed buffer.
(§2) The test compound solution (5 μL/well) and the ATP/substrate/Metal solution (5 μL/well) were added to a 384-well plate, and the enzyme solution or the assay buffer (10 μL/well) was added to the plate (total amount of the reaction mixture: 20 μL/well) for initiation of enzymatic reaction. […] The reaction was performed at room temperature for 45 minutes, and the detection reagent (60 μL/well) was then added to the plate, followed by further reaction for 30 minutes at room temperature under light shielding conditions. Subsequently, fluorescent polarization was determined with a microplate reader at an excitation wavelength of 485 nm and an emission wavelength of 535 nm.
(§3) The percent inhibition of enzyme activity was calculated for each test compound (note: enzyme activity=100% in the case of addition of the enzyme solution and addition of DMSO instead of the test compound solution, whereas enzyme activity […] in the case of addition of the assay buffer instead of the enzyme solution, and addition of DMSO instead of the test compound solution). The percent inhibition of enzyme activity was fitted to a dose-response curve, to determine a 50% inhibitory concentration against CDK4/cyclin D3.
In each table, “+++” corresponds to IC50<10 nM. “++” 10 nM […] IC50<100 nM, and “+” 100 nM≤IC50.

CDK2/cyclin A2 = target: T2, CDK2/cyclin A2 (Homo sapiens, UniProt P24941); experiment: Human CDK2/cyclin A2 inhibitory activity (QS S Assist CDK2/Cyclin A2_FP Kit, IMAP fluorescent polarization); type: biochemical; details: read-out: CDK2 Activity symbol
T2 construct: purchased Carna Biosciences, Inc. QS S Assist CDK2/Cyclin A2_FP Kit
Description: Human CDK2/Cyclin A2 Inhibitory Activity
as §1, with “CDK2/cyclin A2” for “CDK4/cyclin D3”, “CDK2/Cyclin A2_FP” for “CDK4/Cyclin D3_FP”
An assay buffer was prepared by 10-fold dilution of the 10× assay buffer attached to the kit with distilled water, and each solution was prepared with the assay buffer. The assay buffer contained 20 mM HEPES (pH 7.4), 0.01% Tween 20, and 2 mM dithiothreitol. A test compound solution was prepared by dilution of the test compound with dimethyl sulfoxide (DMSO) to a concentration 100 times higher than the final concentration and then 25-fold dilution with the assay buffer to a concentration four times higher than the final concentration. An ATP/substrate/Metal solution was prepared by five-fold dilution of the 5×ATP/substrate/Metal solution attached to the kit with the assay buffer. An enzyme solution was prepared by dilution of the CDK2/cyclin A2 attached to the kit with the assay buffer to a concentration twice higher than the final concentration (final concentration of CDK2/cyclin A2: 2.5 ng/well). A detection reagent was prepared by five-fold dilution of 5×IMAP-binding buffer A with distilled water and 400-fold dilution of the IMAP-binding reagent with the diluted buffer.
as §2, with “60” for “45”
as §3, with “enzyme solution” for “enzyme solution,”, “against CDK2/cyclin A2.” for “against CDK4/cyclin D3.”
In each table, “+++” corresponds to IC50<10 nM, “++” 10 nM≤IC50<100 nM, and “+” 100 nM≤IC50.

T1 sequence (P11802 whole entry): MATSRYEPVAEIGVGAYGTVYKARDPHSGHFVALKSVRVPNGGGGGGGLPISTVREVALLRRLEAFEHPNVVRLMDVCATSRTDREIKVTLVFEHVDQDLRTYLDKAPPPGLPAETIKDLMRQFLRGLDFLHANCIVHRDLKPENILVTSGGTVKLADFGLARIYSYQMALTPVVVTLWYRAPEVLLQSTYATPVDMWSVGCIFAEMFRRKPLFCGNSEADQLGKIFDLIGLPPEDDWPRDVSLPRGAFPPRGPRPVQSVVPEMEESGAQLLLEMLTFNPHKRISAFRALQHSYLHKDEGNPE
T1 sequence (P30281 whole entry partner): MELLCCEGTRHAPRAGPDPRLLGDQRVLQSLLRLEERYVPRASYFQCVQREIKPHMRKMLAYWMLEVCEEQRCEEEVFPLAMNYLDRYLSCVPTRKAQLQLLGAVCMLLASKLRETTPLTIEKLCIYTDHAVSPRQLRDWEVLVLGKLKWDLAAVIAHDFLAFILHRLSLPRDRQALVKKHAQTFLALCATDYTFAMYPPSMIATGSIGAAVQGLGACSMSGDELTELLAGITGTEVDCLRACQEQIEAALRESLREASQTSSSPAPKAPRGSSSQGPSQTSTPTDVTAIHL

pIC50 (CDK4/cyclin D3)	pIC50 (CDK2/cyclin A2)	Compound
≤ 7.00	≤ 7.00	C[C@@H](O)c1cc2cnc(Nc3ccc(CN4CCNCC4)cn3)nc2c(N2CCCC2C(=O)O)n1 (stereo partly drawn) [Compound 42]
7.00 to 8.00	≤ 7.00	C[C@@H](O)c1cc2cnc(Nc3ccc(CN4CCN(CCO)CC4)cn3)nc2c(N2CCC2)n1 [Compound 47]
> 8.00	≤ 7.00	C[C@@H](O)c1cc2cnc(Nc3ccc(CN4CCN(CCO)CC4)cn3)nc2c(N2CCCC2)n1 [Compound 48]
> 8.00	≤ 7.00	C[C@@H](O)c1cc2cnc(Nc3ccc(CN4CCN(CCO)CC4)cn3)nc2c(N2CCCCC2)n1 [Compound 49]
7.00 to 8.00	≤ 7.00	C[C@@H](O)c1cc2cnc(Nc3ccc(N4CCNCC4=O)cn3)nc2c(N2CCC2)n1 [Compound 50]
> 8.00	≤ 7.00	C[C@@H](O)c1cc2cnc(Nc3ccc(N4CCNCC4=O)cn3)nc2c(N2CCCC2)n1 [Compound 51]
> 8.00	≤ 7.00	C[C@@H](O)c1cc2cnc(Nc3ccc(N4CCNCC4=O)cn3)nc2c(N2CCCCC2)n1 [Compound 52]
> 8.00	≤ 7.00	Cc1nc(Nc2ncc3cc([C@@H](C)O)nc(N4CCCC4)c3n2)ccc1N1CCN(C)CC1 [Compound 53]
> 8.00	≤ 7.00	Cc1nc(Nc2ncc3cc([C@@H](C)O)nc(N4CCCCC4)c3n2)ccc1N1CCN(C)CC1 [Compound 54]
> 8.00	≤ 7.00	C[C@@H](O)c1cc2cnc(Nc3ccc(CN4CCN(C)CC4)cn3)nc2c(N2CCCC2)n1 [Compound 55]
> 8.00	≤ 7.00	C[C@@H](O)c1cc2cnc(Nc3ccc(CN4CCN(C)CC4)cn3)nc2c(N2CCCCC2)n1 [Compound 56]
> 8.00	≤ 7.00	C[C@@H](O)c1cc2cnc(Nc3ccc(CN4CCN(CCO)CC4)cn3)nc2c(N2CC3(CCC3)C2)n1 [Compound 57]
7.00 to 8.00	≤ 7.00	C[C@@H](O)c1cc2cnc(Nc3ccc(CN4CCN(CCO)CC4)cn3)nc2c(N2CCOCC2)n1 [Compound 58]
> 8.00	≤ 7.00	C[C@@H](O)c1cc2cnc(Nc3ccc(CN4CCN(CCO)CC4)cn3)nc2c(N2CCCCCC2)n1 [Compound 59]
> 8.00	≤ 7.00	C[C@@H](O)c1cc2cnc(Nc3ccc4c(n3)CCN(CCN(C)C)C4)nc2c(N2CCCCC2)n1 [Compound 60]
> 8.00	≤ 7.00	C[C@@H](O)c1cc2cnc(Nc3ccc4c(n3)CCN(CCN(C)C)C4)nc2c(N2CCC(F)CC2)n1 [Compound 61]
> 8.00	≤ 7.00	C[C@@H](O)c1cc2cnc(Nc3ccc4c(n3)CCNC4)nc2c(N2CCCCC2)n1 [Compound 62]
> 8.00	≤ 7.00	C[C@@H](O)c1cc2cnc(Nc3ccc4c(n3)CCNC4)nc2c(N2CCC(F)CC2)n1 [Compound 63]
> 8.00	≤ 7.00	C[C@@H](O)c1cc2cnc(Nc3ccc(N4CCNCC4=O)cn3)nc2c(N2CCC(F)(F)CC2)n1 [Compound 64]
> 8.00	≤ 7.00	C[C@@H](O)c1cc2cnc(Nc3ccc(CN4CCC(O)CC4)cn3)nc2c(N2CCCCC2)n1 [Compound 65]

pIC50 (CDK4/cyclin D3)	pIC50 (CDK2/cyclin A2)	Compound
7.00 to 8.00	≤ 7.00	C[C@@H](O)c1cc2cnc(Nc3ccc(CN4CCC(O)CC4)cn3)nc2c(N2CCCC2)n1 [Compound 66]
7.00 to 8.00	≤ 7.00	C[C@@H](O)c1cc2cnc(Nc3ccc(CN4CCC(O)CC4)cn3)nc2c(N2CCOCC2)n1 [Compound 67]
> 8.00	≤ 7.00	C[C@@H](O)c1cc2cnc(Nc3ccc(CN4CCC(CO)CC4)cn3)nc2c(N2CCCCC2)n1 [Compound 68]
> 8.00	≤ 7.00	C[C@@H](O)c1cc2cnc(Nc3ccc(CN4CCC(CO)CC4)cn3)nc2c(N2CCCC2)n1 [Compound 69]
7.00 to 8.00	≤ 7.00	C[C@@H](O)c1cc2cnc(Nc3ccc(CN4CCC(CO)CC4)cn3)nc2c(N2CCOCC2)n1 [Compound 70]
> 8.00	≤ 7.00	C[C@@H](O)c1cc2cnc(Nc3ccc(N4CCN(C)CC4=O)cn3)nc2c(N2CCCCC2)n1 [Compound 72]
7.00 to 8.00	≤ 7.00	C[C@@H](O)c1cc2cnc(Nc3ccc(N4CCN(C)CC4=O)cn3)nc2c(N2CCCC2)n1 [Compound 73]
7.00 to 8.00	≤ 7.00	C[C@@H](O)c1cc2cnc(Nc3ccc(N4CCN(C)CC4=O)cn3)nc2c(N2CCOCC2)n1 [Compound 74]
> 8.00	7.00 to 8.00	C[C@@H](O)c1cc2cnc(Nc3ccc(CN4CCN(CCO)CC4)cn3)nc2c(N2CCCC2(C)C)n1 [Compound 75]
> 8.00	≤ 7.00	C[C@@H](O)c1cc2cnc(Nc3ccc(CN4CCN(CCO)CC4)cn3)nc2c(N2CCC(C(=O)O)CC2)n1 [Compound 76]
7.00 to 8.00	≤ 7.00	C[C@@H](O)c1cc2cnc(Nc3ccc(CN4CCN(CCO)CC4)cn3)nc2c(N2CCN(C)CC2)n1 [Compound 77]
> 8.00	≤ 7.00	C[C@@H](O)c1cc2cnc(Nc3ccc(CN4CCN(CCO)CC4)cn3)nc2c(N2CCC(F)CC2)n1 [Compound 78]
> 8.00	≤ 7.00	C[C@@H](O)c1cc2cnc(Nc3ccc(CN4CCN(CCO)CC4)cn3)nc2c(N2CCC(F)(F)CC2)n1 [Compound 79]
> 8.00	≤ 7.00	C[C@@H](O)c1cc2cnc(Nc3ccc4c(n3)CCNC4)nc2c(N2CCC(F)(F)CC2)n1 [Compound 80]
> 8.00	≤ 7.00	C[C@@H](O)c1cc2cnc(Nc3ccc4c(n3)CCN(CCO)C4)nc2c(N2CCC(F)(F)CC2)n1 [Compound 81]
> 8.00	≤ 7.00	C[C@@H](O)c1cc2cnc(Nc3ccc4c(n3)CCN(CCN(C)C)C4)nc2c(N2CCC(F)(F)CC2)n1 [Compound 82]
> 8.00	7.00 to 8.00	CC(O)c1cc2cnc(Nc3ccc(CN4CCN(CCO)CC4)cn3)nc2c(N2CCCC2C)n1 (stereo not drawn) [Compound 83]
> 8.00	≤ 7.00	C[C@@H](O)c1cc2cnc(Nc3ccc(CN4CCN(CCO)CC4)cn3)nc2c(N2CCC(C(F)(F)F)CC2)n1 [Compound 84]
7.00 to 8.00	≤ 7.00	C[C@@H](O)c1cc2cnc(Nc3ccc(CN4CCN(CCO)CC4)cn3)nc2c(N2CCS(=O)(=O)CC2)n1 [Compound 85]

Reference: patent US11084814B2, “Pyrido[3, 4-d]pyrimidine derivative and pharmaceutically acceptable salt thereof” (Teijin Pharma Limited, priority 2016, dated 2021)
